For assay [1], the target named is T1, partially purified rat brain farnesyl protein transferase (FPT) (Rattus norvegicus, UniProt Q02293+Q04631).
T1 construct: partially purified rat brain farnesyl protein transferase (FPT); from tissue; host or cells: rat brain
Nature of the assay: In vitro enzyme assay: inhibition of Ras-CVLS farnesylation by FPT. The format is biochemical.

Assay [2] concerns Ras processing in COS cells. Kind of assay: Cell-based assay: COS cells, inhibition of Ras processing. As for the experimental part:
2. Cell-Based Assay. COS IC50 values refer to the COS cells activity inhibition of Ras processing, are determined by the methods disclosed in […] or WO 95/10516.

In general, IC50 refers to the midpoint of a concentration-inhibition curve. Low values mean greater potency in that assay, high ones weaker potency in that assay.

In turn, `CCOC(=O)CNC(=O)N1CCC(CC(=O)N2CCC([C@H]3c4ncc(Br)cc4CCc4cc(Cl)cc(Br)c43)CC2)CC1` [Example 4] yielded an IC50 in assay [1] of 2 nM.

Regarding `O=C(CC1CCN(C(=O)N(CCO)CCO)CC1)N1CCC([C@H]2c3ncc(Br)cc3CCc3cc(Cl)cc(Br)c32)CC1` [Example 7], the IC50 in assay [2] came to 18 nM; in assay [1] it was 3.8 nM.

In the case of “(+)-Methyl alpha(S)-[[[4-[2-[4-[(3,10-dibromo-8-chloro-6,11-dihydro-5H-benzo[5,6]cyclohepta[1,2-b]pyridin-11(R)-yl)-1-piperidinyl]-2-oxoethyl]-1-piperidinyl]carbonyl]amino]-beta-methylbutanoate [Example 5]”, the values for the IC50 in assay [2] and in assay [1] were 150 nM and 5 nM, respectively.

For the compound `CCCNC(=O)N1CCC(CC(=O)N2CCN(C3c4ccc(Cl)cc4CCc4cc(Br)cnc43)CC2)CC1` (stereo not shown) [Example 15, 4-[2-[4-(3-Bromo-8-chloro-6,11-dihydro-5H-benzo[5,6]cyclohepta[1,2-b]pyridin-11-yl)-1-piperazinyl]-2-oxoethyl]-N-propyl-1-piperidinecarboxamide], the IC50 in assay [2] is 1500 nM; in assay [1], 100 nM.

As to `CCOC(=O)N1CCC(NC(=O)N2CCC(CC(=O)N3CCC([C@H]4c5ncc(Br)cc5CCc5cc(Cl)cc(Br)c54)CC3)CC2)CC1` [Example 6], the IC50 in assay [2] came out at 20 nM; in assay [1], 1.7 nM.

`NC(=O)CNC(=O)N1CCC(CC(=O)N2CCC([C@H]3c4ncc(Br)cc4CCc4cc(Cl)cc(Br)c43)CC2)CC1` [Example 13]: the figures for the IC50 in assay [2] and in assay [1] were 25 nM and 0.9 nM, respectively.

For the compound `COC(=O)[C@H](COC(C)(C)C)NC(=O)N1CCC(CC(=O)N2CCC([C@H]3c4ncc(Br)cc4CCc4cc(Cl)cc(Br)c43)CC2)CC1` [Example 8], the IC50 in assay [2] is 120 nM; in assay [1] it was 8.7 nM.

In assay [1], `O=C(O)CNC(=O)N1CCC(CC(=O)N2CCC([C@H]3c4ncc(Br)cc4CCc4cc(Cl)cc(Br)c43)CC2)CC1` [Example 12] registered an IC50 of 0.8 nM.

For `COC(=O)[C@H](CO)NC(=O)N1CCC(CC(=O)N2CCC([C@H]3c4ncc(Br)cc4CCc4cc(Cl)cc(Br)c43)CC2)CC1` [Example 9], the IC50 in assay [2] stood at 110 nM; in assay [1], 3.3 nM.

In assay [1], `CC(C)(C)NC(=O)N1CCC(CC(=O)N2CCN(C3c4ccc(Cl)cc4CCc4cc(Br)cnc43)CC2)CC1` (stereo not shown) [Example 16, 4-[2-[4-(3-Bromo-8-chloro-6,11-dihydro-5H-benzo[5,6]cyclohepta[1,2-b]pyridin-11-yl)-1-piperazinyl]-2-oxoethyl]-N-(1,1-dimethylethyl)-1-piperidinecarboxamide] registered an IC50 of 108 nM.

With `NC(=O)[C@H](CO)NC(=O)N1CCC(CC(=O)N2CCC([C@H]3c4ncc(Br)cc4CCc4cc(Cl)cc(Br)c43)CC2)CC1` [Example 10], the IC50 came out at 300 nM in assay [2] and 4.6 nM in assay [1].

In assay [1], `CNC(=O)N1CCC(CC(=O)N2CCC([C@H]3c4ncc(Br)cc4CCc4cc(Cl)cc(Br)c43)CC2)CC1` [Example 3] displayed an IC50 of 1.9 nM.

`COc1ccccc1NC(=O)N1CCC(CC(=O)N2CCC([C@H]3c4ncc(Br)cc4CCc4cc(Cl)cc(Br)c43)CC2)CC1` [Example 1]: the IC50 worked out at 50 nM in assay [2] and 5.1 nM in assay [1].

On to `O=C(CC1CCN(C(=O)NCCO)CC1)N1CCC([C@H]2c3ncc(Br)cc3CCc3cc(Cl)cc(Br)c32)CC1` [Example 11], for which the IC50 in assay [2] was 18 nM; in assay [1], 3.1 nM.

Take `O=C(CC1CCN(C(=O)Nc2ccccc2)CC1)N1CCC([C@H]2c3ncc(Br)cc3CCc3cc(Cl)cc(Br)c32)CC1` [Example 2]: the figures for the IC50 in assay [2] and in assay [1] were 33 nM and 5.4 nM, respectively.

With `CNC(=O)N1CCC(CC(=O)N2CCN(C3c4ccc(Cl)cc4CCc4cc(Br)cnc43)CC2)CC1` (stereo not shown) [Example 14, 4-[2-[4-(3-Bromo-8-chloro-6,11-dihydro-5H-benzo[5,6]-cyclohepta[1,2-b]pyridin-11-yl)-1-piperazinyl]-2-oxoethyl]-N-methyl-1-piperidinecarboxamide], the values for the IC50 in assay [2] and in assay [1] were 750 nM and 50 nM, respectively.

Values taken from patent US6699872B2, “N-substituted urea inhibitors of farnesyl-protein transferase” (Schering Corporation, priority 1997, dated 2004).
